The record followed here is paper PMC10398856 (ACS Omega, 2023).

Assay [1] concerns SARS-CoV-2 Delta (B.617.2 variant). As to the kind of experiment: microbe, parasite or virus in culture. It counts as cell-based. Conditions: Severe acute respiratory syndrome coronavirus 2, read-out: IC50, antiviral effect on SARS-CoV-2 Delta (B.617.2 variant).
For assay [2], the system named is SARS-CoV-2 NIV2020-770 (D614G variant). It counts as cell-based. The following applies: read-out: IC50, antiviral effect on SARS-CoV-2 NIV2020-770 (D614G variant).

SMILES strings stand for the structures. A value given as a limit tells only on which side of the number the result lay.

Turning to `O=c1cc(OCCOc2ccnc(SCc3ccc(Cl)cc3)n2)c2ccccc2o1` [5i, 4-(2-((2-((4-Chlorobenzyl)thio)pyrimidin-4-yl)oxy)ethoxy)-2H-chromen-2-one], the IC50 in assay [1] is below 2.5 µM; in assay [2] it was below 10 µM.

`Cc1cccc(CSc2nccc(OCCCOc3cc(=O)oc4ccccc34)n2)c1` [5f, 4-(3-((2-((3-Methylbenzyl)thio)pyrimidin-4-yl)oxy)propoxy)-2H-chromen-2-one]: the IC50 is below 2.5 µM in assay [1] and below 25 µM in assay [2].

For the compound `O=c1cc(OCCOc2ccnc(SCc3ccc(F)cc3)n2)c2cc(F)ccc2o1` [5c, 6-Fluoro-4-(2-((2-((4-fluorobenzyl)thio)pyrimidin-4-yl)oxy)ethoxy)-2H-chromen-2-one], the results for the IC50 in assay [1] and in assay [2] were below 10 µM and below 2.5 µM, respectively.

For `O=c1cc(OCCCOc2ccnc(SCc3ccc(F)cc3)n2)c2cc(F)ccc2o1` [5d, 6-Fluoro-4-(3-((2-((4-fluorobenzyl)thio)pyrimidin-4-yl)oxy)propoxy)-2H-chromen-2-one], the IC50 in assay [1] and in assay [2] was below 10 µM each time.

`Cc1cccc(CSc2nccc(OCCOc3cc(=O)oc4ccccc34)n2)c1` [5e, 4-(2-((2-((3-Methylbenzyl)thio)pyrimidin-4-yl)oxy)ethoxy)-2H-chromen-2-one]: the IC50 was below 10 µM in assay [1] and below 25 µM in assay [2].

Regarding `O=c1cc(OCCOc2ccnc(SCc3ccc(F)cc3)n2)c2ccccc2o1` [5a, 4-(2-((2-((4-Fluorobenzyl)thio)pyrimidin-4-yl)oxy)ethoxy)-2H-chromen-2-one], the results for the IC50 in assay [1] and in assay [2] were below 25 µM and below 50 µM, respectively.

In the case of `Cc1cccc(CSc2nccc(OCCOc3cc(=O)oc4ccc(F)cc34)n2)c1` [5g, 6-Fluoro-4-(2-((2-((3-methylbenzyl)thio)pyrimidin-4-yl)oxy)ethoxy)-2H-chromen-2-one], the IC50 in assay [1] was below 10 µM; in assay [2], below 25 µM.

Regarding `O=c1cc(OCCCOc2ccnc(SCc3ccc(F)cc3)n2)c2ccccc2o1` [5b, 4-(3-((2-((4-Fluorobenzyl)thio)pyrimidin-4-yl)oxy)propoxy)-2H-chromen-2-one], the IC50 in assay [1] is below 2.5 µM; in assay [2], below 10 µM.

With `Cc1cccc(CSc2nccc(OCCCOc3cc(=O)oc4ccc(F)cc34)n2)c1` [5h, 6-Fluoro-4-(3-((2-((3-methylbenzyl)thio)pyrimidin-4-yl)oxy)propoxy)-2H-chromen-2-one], the IC50 is below 10 µM in assay [1] and below 2.5 µM in assay [2].
